According to patent US12331033B2, “Inhibitors of SARM1” (Disarm Therapeutics, Inc., priority 2020, dated 2025):

Target: SARM1 (ARM-SAM-TIR) (Homo sapiens (Human), UniProt Q6SZW1)
Assay: ARM-SAM-TIR SARM1 IC50 assay (NADase activity, NAD+ cleavage, RapidFire MS)
Type: biochemical
Settings: ARM-SAM-TIR lysate 5 μg/mL, 2 h pre-incubation, 5 μM NAD+, 2 hr room temperature
Experimental: This Example describes an assay of ARM-SAM-TIR NADase activity and use of this assay to measure the efficacy of compounds of Formula I or Formula I′ to block SARM1 mediated NAD+ cleavage. This assay was optimized in such a way as to characterize the efficacy of the compounds in Formula I or Formula I′ to inhibit SARM1 activity and to calculate an IC50 value for each compound. This assay makes use of full length SARM1, which encompasses the ARM, SAM and TIR domains.
NRK1-HEK293T cells were seeded onto 150 cm^2 plates at 20×10^6 cells per plate. The next day, the cells were transfected with 15 μg ARM-SAM-TIR expression plasmid, SEQ ID NO: 1.
The cultures were supplemented with 1 mM NR at time of transfection to minimize toxicity from ARM-SAM-TIR overexpression. Forty-eight hours after transfection, cells were harvested, pelleted by centrifugation at 1,000 rpm (Sorvall ST 16R centrifuge, Thermo Fisher), and washed once with cold PBS (0.01 M phosphate buffered saline NaCl 0.138 M; KCl 0.0027 M; pH 7.4). The cells were resuspended in PBS with protease inhibitors (cOmplete™ protease inhibitor cocktail, Roche product #11873580001) and cell lysates were prepared by sonication (Branson Sonifer 450, output=3, 20 episodes of stroke). The lysates were centrifuged (12,000×g for 10 min at 4° C.) to remove cell debris and the supernatants (containing ARM-SAM-TIR protein) were stored at −80° C. for later use in the in vitro ARM-SAM-TIR NADase assay (see below). Protein concentration was determined by the Bicinchoninic (BCA) method and used to normalize lysate concentrations.
The enzymatic assay was performed in a 384-well polypropylene plate in Dulbecco's PBS buffer in a final assay volume of 20 μL. ARM-SAM-TIR lysate with a final concentration of 5 μg/mL was pre-incubated with the respective compound at 1% DMSO final assay concentration over 2 h at room temperature. The reaction was initiated by addition of 5 μM final assay concentration of NAD+ as substrate. After a 2 hr room temperature incubation, the reaction was terminated with 40 μL of stop solution of 7.5% trichloroactetic acid in acetonitrile. The NAD+ and ADPR concentrations were analyzed by a RapidFire High Throughput Mass Spectrometry System (Agilent Technologies, Santa Clara, Calif.) using an API4000 triple quadrupole mass spectrometer (AB Sciex Framingham, Mass.).

SARM1 (ARM-SAM-TIR), sequence (Q6SZW1 other isoform, or with tags, fused parts or gaps): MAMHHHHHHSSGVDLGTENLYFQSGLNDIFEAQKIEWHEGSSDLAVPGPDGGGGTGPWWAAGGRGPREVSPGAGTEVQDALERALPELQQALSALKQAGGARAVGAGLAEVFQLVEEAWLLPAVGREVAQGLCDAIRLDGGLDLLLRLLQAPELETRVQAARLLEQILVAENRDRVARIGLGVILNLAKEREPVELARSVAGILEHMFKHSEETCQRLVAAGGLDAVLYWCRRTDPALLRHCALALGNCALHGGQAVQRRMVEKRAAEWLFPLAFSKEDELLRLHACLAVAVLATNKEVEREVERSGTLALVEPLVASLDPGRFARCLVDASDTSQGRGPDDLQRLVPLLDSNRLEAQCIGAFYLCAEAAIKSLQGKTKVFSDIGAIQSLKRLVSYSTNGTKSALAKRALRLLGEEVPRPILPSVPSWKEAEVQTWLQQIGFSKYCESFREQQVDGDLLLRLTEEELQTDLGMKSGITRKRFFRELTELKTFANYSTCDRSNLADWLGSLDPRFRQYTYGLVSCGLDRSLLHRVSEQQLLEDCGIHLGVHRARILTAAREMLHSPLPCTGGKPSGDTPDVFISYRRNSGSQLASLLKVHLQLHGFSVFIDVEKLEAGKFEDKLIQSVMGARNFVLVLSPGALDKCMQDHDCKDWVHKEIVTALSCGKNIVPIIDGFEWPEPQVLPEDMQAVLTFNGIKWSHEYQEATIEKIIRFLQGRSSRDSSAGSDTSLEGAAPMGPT

Row | Structure (SMILES) | IC50 [µM]
1 | [2H]C([2H])([2H])c1c(-c2ccncc2)n[nH]c1NC(=O)CCc1ccc(Cl)nc1 [Example 282] | < 5
2 | NC(Cc1ccc(Cl)c(F)c1)C(=O)Nc1cc(-c2ccncc2)n[nH]1 (centres unmarked) [Example 175] | < 5
3 | Cc1c(-c2ccncc2)n[nH]c1NC(=O)CC1CCOc2cc(Cl)ccc21 (centres unmarked) [Example 173] | < 5
4 | O=C(CCc1ccc(C(F)(F)F)cc1)Nc1[nH]nc(-c2ccnnc2)c1Br [Example 158] | < 5
5 | Cc1ccc(CCC(=O)Nc2nnc(-c3ccncc3)[nH]2)cn1 [Example 83] | 5 to 15
6 | Cc1cccc(CS(=O)(=O)Nc2[nH]nc(-c3ccncc3)c2C)c1 [Example 254] | 5 to 15
7 | O=C(CCC1CCCCC1)Nc1nnc(-c2ccncc2)[nH]1 [Example 134] | 5 to 15
8 | O=C(CCc1ccc(Cl)cc1)Nc1[nH]nc(-c2ccnnc2)c1C1CCC1 [Example 264] | < 5
9 | CN(C)C(=O)Cc1c(-c2ccncc2)n[nH]c1NC(=O)CCc1ccc(Cl)nc1 [Example 316] | < 5
10 | Cc1c(-c2ccncc2)n[nH]c1NC(=O)Cn1cc(C)c2ccccc21 [Example 241] | 5 to 15
11 | O=C(CCc1ccc(OC(F)(F)F)cc1)Nc1nnc(-c2ccncc2)[nH]1 [Example 120] | < 5
12 | O=C(CCc1ccc(Cl)cc1)Nc1nnc(-c2ccncc2F)[nH]1 [Example 11] | < 5
13 | O=C(CCc1ccc(Cl)cc1)Nc1cc(-c2ccncc2)[nH]n1 [Example 114] | < 5
14 | CCOC(=O)Cc1c(-c2ccncc2)n[nH]c1NC(=O)CCc1ccc(Cl)cc1 [Example 229] | < 5
15 | O=C(NCc1ccc(Cl)cc1)Nc1nnc(-c2ccncc2)[nH]1 [Example 92] | < 5
16 | O=C(CCc1ccc(Cl)nc1)Nc1[nH]nc(-c2ccncc2)c1C1CCC1 [Example 204] | 5 to 15
17 | O=C(Nc1nnc(-c2ccncc2)[nH]1)N1CCc2cc(Cl)ncc2C1 [Example 296] | < 5
18 | Nc1cc(-c2cc(NC(=O)CCc3ccc(Cl)cc3)[nH]n2)ccn1 [Example 31] | < 5
19 | Cc1c(-c2ccncc2)n[nH]c1NC(CCc1ccc(Cl)cc1)C(F)(F)F (centres unmarked) [Example 317] | 5 to 15
20 | O=C(CCCc1ccccc1)Nc1nnc(-c2ccncc2)[nH]1 [Example 142] | 5 to 15
21 | O=C(CN1C(=O)COc2ccccc21)Nc1nnc(-c2ccncc2)[nH]1 [Example 80] | 15 to 30
22 | O=C(CN1CCOc2cc(Cl)ccc21)Nc1nnc(-c2ccncc2)[nH]1 [Example 48] | < 5
23 | O=C(CCc1ccc(Cl)nc1)Nc1[nH]nc(-c2ccnnc2)c1C1CCC1 [Example 265] | < 5
24 | O=C(C[C@H]1CCOc2cc(Cl)ccc21)Nc1cc(-c2ccnnc2)n[nH]1 [Example 206] | < 5
25 | Cc1c(-c2ccncc2)n[nH]c1NC(=O)CCc1ccc(C(F)(F)F)cc1 [Example 200] | < 5

Row | Structure (SMILES) | IC50 [µM]
26 | O=C(Nc1nnc(-c2ccncc2)[nH]1)N1CCc2cc(Cl)ccc2C1 [Example 185] | < 5
27 | O=C(C[C@@H]1CCc2ccccc21)Nc1nnc(-c2ccncc2)[nH]1 [Example 67] | < 5
28 | O=C(C[C@H]1CCc2ccccc21)Nc1nnc(-c2ccncc2)[nH]1 [Example 68] | 5 to 15
29 | Cc1c(-c2ccncc2)n[nH]c1NC(=O)CCc1ccc(C#N)c(F)c1 [Example 274] | < 5
30 | CC(=O)Nc1nnc(-c2ccncc2)[nH]1 [Example 144] | > 30
31 | Cc1c(-c2ccncc2)n[nH]c1NC(=O)CCc1cc(F)ccc1F [Example 249] | < 5
32 | COc1ccccc1CCC(=O)Nc1nnc(-c2ccncc2)[nH]1 [Example 107] | < 5
33 | O=C(CCc1ccc(Cl)cc1)Nc1nnc(-c2ccncc2)s1 [Example 115] | > 30
34 | O=C(Nc1nnc(-c2ccncc2)[nH]1)[C@H]1CCc2ccccc2C1 [Example 88] | < 5
35 | O=C(C[C@H]1CCOc2nc(Cl)ccc21)Nc1nnc(-c2ccncc2)[nH]1 [Example 232] | < 5
36 | O=C(CC1CCOc2ccccc21)Nc1nnc(-c2ccncc2)[nH]1 (centres unmarked) [Example 109] | < 5
37 | Cc1c(-c2ccncc2F)n[nH]c1NC(=O)CCc1ccc(Cl)s1 [Example 308] | < 5
38 | Cc1c(-c2ccncc2)n[nH]c1NC(=O)/C=C/c1c(F)cccc1F [Example 247] | 5 to 15
39 | [2H]C([2H])(C(=O)Nc1cc(-c2ccncc2)n[nH]1)C([2H])([2H])c1ccc(Cl)cc1 [Example 162] | < 5
40 | O=C(CN1C(=O)COc2cc(Cl)ccc21)Nc1nnc(-c2ccncc2)[nH]1 [Example 39] | > 30
41 | N#Cc1c(-c2ccncc2F)n[nH]c1NC(=O)CCc1ccc(Cl)cc1 [Example 325] | < 5
42 | COc1ccc(CCC(=O)Nc2nnc(-c3ccncc3)[nH]2)cc1 [Example 127] | < 5
43 | Cc1c(-c2ccnnc2)n[nH]c1NC(=O)C[C@H]1CCOc2cc(Cl)ccc21 [Example 278] | < 5
44 | NC(=O)Cc1c(-c2ccncc2)n[nH]c1NC(=O)CCc1ccc(Cl)cc1 [Example 302] | < 5
45 | Cc1c(-c2ccncc2)n[nH]c1NC(=O)C[C@@H]1CCOc2cc(Cl)ccc21 [Example 215] | < 5
46 | CNC(=O)Cc1c(-c2ccncc2)n[nH]c1NC(=O)CCc1ccc(Cl)cc1 [Example 263] | < 5
47 | O=C(COc1ccc(Cl)cc1)Nc1nnc(-c2ccncc2)[nH]1 [Example 102] | 5 to 15
48 | O=C(CCc1cnc(C(F)(F)F)nc1)Nc1cc(-c2ccncc2)n[nH]1 [Example 34] | < 5
49 | O=C(Nc1cc(-c2ccncc2)n[nH]1)C(O)Cc1ccc(Cl)cc1 (centres unmarked) [Example 275] | < 5
50 | Cc1c(-c2ccncc2)n[nH]c1NC(=O)CCc1nc2ccccc2s1 [Example 245] | 5 to 15

Row | Structure (SMILES) | IC50 [µM]
51 | [2H]C([2H])(C(=O)Nc1cc(-c2ccncc2)n[nH]1)C([2H])([2H])c1ccc(Cl)nc1 [Example 9] | < 5
52 | [2H]C([2H])(C(=O)Nc1cc(-c2ccnnc2)n[nH]1)C([2H])([2H])c1ccc(Cl)cc1 [Example 189] | < 5
53 | CC(C)(C)OC(=O)N(CC(=O)Nc1nnc(-c2ccncc2)[nH]1)c1ccccc1 [Example 70] | > 30
54 | N#Cc1c(-c2ccnnc2)n[nH]c1NC(=O)CCc1ccc(Cl)cc1 [Example 312] | < 5
55 | Cc1c(-c2ccncc2)n[nH]c1NC(=O)CC(C)c1ccc(F)cc1 (centres unmarked) [Example 246] | < 5
56 | NS(=O)(=O)c1ccc(CCC(=O)Nc2nnc(-c3ccncc3)[nH]2)cc1 [Example 77] | 15 to 30
57 | Cc1ccc(CCC(=O)Nc2nnc(-c3ccncc3)[nH]2)c(C)c1 [Example 129] | < 5
58 | Cc1ccc(CCC(=O)Nc2nnc(-c3ccncc3)[nH]2)cc1 [Example 139] | < 5
59 | O=C(CCc1ccccc1Cl)Nc1nnc(-c2ccncc2)[nH]1 [Example 138] | < 5
60 | Cc1c(-c2ccnnc2)n[nH]c1NC(=O)CCc1ccc(Cl)cc1 [Example 155] | < 5
61 | Cc1c(-c2ccncc2)n[nH]c1NC(=O)C[C@H]1CCOc2cc(Cl)ccc21 [Example 214] | < 5
62 | [2H]C([2H])(C(=O)Nc1nnc(-c2ccnnc2)[nH]1)C([2H])([2H])c1ccc(Cl)nc1 [Example 191] | < 5
63 | Clc1ccc(CCCNc2nnc(-c3ccncc3)[nH]2)cc1 [Example 41] | > 30
64 | O=C(CCc1ccc(Cl)cc1)Nc1cc(-c2ccnnc2)[nH]n1 [Example 40] | < 5
65 | CN(C(=O)CCc1ccccc1)c1nnc(-c2ccncc2)[nH]1 [Example 98] | 5 to 15
66 | O=C(CCc1ccc(Cl)nc1)Nc1nnc(-c2ccnnc2)[nH]1 [Example 21] | < 5
67 | CNC(=O)Cc1c(-c2ccncc2)n[nH]c1NC(=O)CCc1ccc(Cl)nc1 [Example 285] | < 5
68 | O=C(CN1C(=O)COc2cc(Cl)ccc21)Nc1cc(-c2ccncc2)n[nH]1 [Example 38] | > 30
69 | O=C(CCc1ccc(Cl)cc1)Nc1[nH]nc(-c2ccncc2)c1C1CC1 [Example 227] | < 5
70 | Cc1c(-c2ccncc2)n[nH]c1NC(=O)CC1Cc2ccccc2C1 [Example 199] | 5 to 15
71 | CC(C)(C)OC(=O)N1CCC(CC(=O)Nc2nnc(-c3ccncc3)[nH]2)c2ccccc21 (centres unmarked) [Example 64] | > 30
72 | O=C(CCc1ccc(Cl)cc1Cl)Nc1nnc(-c2ccncc2)[nH]1 [Example 36] | < 5
73 | [2H]C([2H])(C(=O)Nc1[nH]nc(-c2ccnnc2)c1C)C([2H])([2H])c1ccc(Cl)cc1 [Example 177] | < 5
74 | O=C(Nc1nnc(-c2ccncc2)[nH]1)NC1CCOc2nc(Cl)ccc21 (centres unmarked) [Example 184] | 5 to 15
